These results are taken from PubChem BioAssay (NCI).

Test systems include A549 NSCLC; KM12 colon; MOLT-4 leukemia; NCI-H460 lung; OVCAR-5 ovarian; OVCAR-8 ovarian; SK-OV-3 ovarian; SW-620 colon; UACC-257 melanoma; IGROV1 ovarian.
What all share (test): NCI-60 cell line screen, 48 h

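Interpolation was linear, between the two tested concentrations surrounding the appropriate level; five concentrations were tested over 48 hours in 96-well plates. Here, GI50 denotes the concentration required for 50% inhibition of growth. TGI is the concentration that stops growth completely.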

Turning to `Clc1ccc(NCNC2Nc3ccccc3N2)cc1Cl`, the TGI is above 100 µM with A549 NSCLC; 92.5 µM in the assay with KM12 colon; above 100 µM in the assay on MOLT-4 leukemia; above 100 µM in the assay with NCI-H460 lung; above 100 µM with OVCAR-5 ovarian; 46.6 µM in the assay on OVCAR-8 ovarian. In addition, the TGI with SK-OV-3 ovarian, in the assay on SW-620 colon and in the assay with UACC-257 melanoma was above 100 µM each time.

Regarding `O=C(c1ccccc1)[C@H]1Nc2ccc(Cl)cc2[C@H]2c3ccccc3O[C@H]21`, the TGI in the assay on A549 NSCLC stood at 30.2 µM; in the assay with IGROV1 ovarian it was 38.2 µM; with KM12 colon, 30.2 µM; in the assay with MOLT-4 leukemia, 37.7 µM; with NCI-H460 lung, 34.3 µM; in the assay on OVCAR-5 ovarian, 29.5 µM. Further, the TGI in the assay with OVCAR-8 ovarian is 34.6 µM; in the assay with SW-620 colon it was 31.2 µM; with UACC-257 melanoma it was 8.48 µM.

As to `O=c1[nH]c(=O)n(Cc2ccc(C34CC5CC(CC(C5)C3)C4)c(O)c2)cc1F`, the GI50 with KM12 colon was 12.1 µM; in the assay on MOLT-4 leukemia, 12.4 µM; with NCI-H460 lung, 16.5 µM; with OVCAR-5 ovarian it was 16.1 µM; in the assay with SK-OV-3 ovarian, 21 µM; with SW-620 colon, 13.5 µM. The TGI was found to be 28.5 µM in the assay with KM12 colon; 32.4 µM with MOLT-4 leukemia; 43 µM in the assay on NCI-H460 lung; 33.4 µM in the assay with OVCAR-5 ovarian; 55.7 µM in the assay on SK-OV-3 ovarian; 34.2 µM in the assay with SW-620 colon.

Consider `O=c1c2ccccc2c(=O)n2n1-c1cccc(c1)CSSCc1cccc-2c1`, for which the GI50 in the assay on A549 NSCLC, in the assay on IGROV1 ovarian, in the assay with KM12 colon, in the assay with MOLT-4 leukemia, in the assay with OVCAR-5 ovarian and in the assay on OVCAR-8 ovarian was above 100 µM in each case. The GI50 in the assay on SW-620 colon was above 100 µM. For the same compound, the TGI with A549 NSCLC, with IGROV1 ovarian, in the assay on KM12 colon, with MOLT-4 leukemia, in the assay on OVCAR-5 ovarian and with OVCAR-8 ovarian was above 100 µM each time. Moreover, the TGI with SK-OV-3 ovarian and in the assay with SW-620 colon was above 100 µM each time.

On to `CCN(CC)CCN1C(=O)C2C3C(C)=CC(OC(C)=O)(CC3C)C2C1=O` (centres undefined), for which the GI50 in the assay with A549 NSCLC, in the assay on IGROV1 ovarian, in the assay on KM12 colon, in the assay on MOLT-4 leukemia, in the assay with OVCAR-5 ovarian and in the assay with OVCAR-8 ovarian was above 100 µM each time. Also, the GI50 in the assay on SK-OV-3 ovarian, in the assay on SW-620 colon and with UACC-257 melanoma was above 100 µM each time. The TGI with A549 NSCLC, in the assay with IGROV1 ovarian, in the assay with KM12 colon, in the assay with MOLT-4 leukemia, in the assay with OVCAR-5 ovarian and in the assay on OVCAR-8 ovarian was above 100 µM each time. In addition, the TGI in the assay with SK-OV-3 ovarian, with SW-620 colon and in the assay with UACC-257 melanoma was above 100 µM each time.

As for `O=C1c2ccccc2C(=O)N1C/C=N/NS(=O)(=O)c1cccc([N+](=O)[O-])c1`, the TGI with A549 NSCLC, in the assay on IGROV1 ovarian, in the assay on KM12 colon, in the assay on MOLT-4 leukemia, in the assay with NCI-H460 lung and in the assay on OVCAR-8 ovarian was above 100 µM each time. Also, the TGI with SW-620 colon and with UACC-257 melanoma was above 100 µM each time.

With `Cc1cc[c]([Sb]2[O]C(CO)C(C(O)C(O)C(=O)O)[O]2)cc1` (centres undefined), the GI50 in the assay with A549 NSCLC is 35.3 µM; in the assay with IGROV1 ovarian it was above 100 µM; with KM12 colon, 46.7 µM; in the assay with MOLT-4 leukemia, 78.7 µM; in the assay with OVCAR-5 ovarian, 29.2 µM; in the assay with OVCAR-8 ovarian it was above 100 µM. In addition, in the assay on SW-620 colon, the GI50 was above 100 µM. Besides, the TGI in the assay with A549 NSCLC is above 100 µM; with IGROV1 ovarian, above 100 µM; with KM12 colon, above 100 µM; in the assay on MOLT-4 leukemia it was above 100 µM; in the assay with OVCAR-5 ovarian, 75.2 µM; in the assay on OVCAR-8 ovarian, above 100 µM. In the assay on SW-620 colon, this compound displayed a TGI above 100 µM.

Regarding `O=C(O)c1ccccc1NS(=O)(=O)c1ccc(Cl)cc1`, the TGI in the assay on A549 NSCLC, in the assay with IGROV1 ovarian, with MOLT-4 leukemia, with NCI-H460 lung, in the assay with OVCAR-5 ovarian and with OVCAR-8 ovarian was above 100 µM throughout. In addition, the TGI in the assay with SK-OV-3 ovarian, in the assay on SW-620 colon and in the assay with UACC-257 melanoma was above 100 µM each time.

`CC(NC(=O)c1ccc(Cl)c(Cl)c1)c1ccc(-c2ccccc2)cc1` (centres undefined): the TGI with A549 NSCLC is 45.5 µM; with IGROV1 ovarian, above 100 µM; with KM12 colon, above 100 µM; in the assay with NCI-H460 lung it was above 100 µM; with OVCAR-5 ovarian, above 100 µM; with OVCAR-8 ovarian it was 82.5 µM. The TGI is 90.4 µM in the assay on SK-OV-3 ovarian, above 100 µM in the assay with SW-620 colon and above 100 µM in the assay with UACC-257 melanoma.

Consider `O=C1C2C3SC(c4cc5ccccc5cc43)C2C(=O)N1c1ccccc1` (centres undefined), for which the TGI in the assay with A549 NSCLC, in the assay on IGROV1 ovarian, with KM12 colon, in the assay with MOLT-4 leukemia, with OVCAR-5 ovarian and in the assay on OVCAR-8 ovarian was above 100 µM each time. Besides, the TGI with SK-OV-3 ovarian, in the assay with SW-620 colon and in the assay with UACC-257 melanoma was above 100 µM each time.

As to `CCC(=O)N1C(=S)SC[C@H]1C(=O)OC`, the TGI in the assay on A549 NSCLC, in the assay with IGROV1 ovarian, with KM12 colon, with MOLT-4 leukemia, in the assay with OVCAR-5 ovarian and with OVCAR-8 ovarian was above 100 µM in each case. The TGI with SK-OV-3 ovarian, in the assay with SW-620 colon and with UACC-257 melanoma was above 100 µM in each case.

With `Oc1ccc(CCNc2nc3ccccc3c3[nH]c4ccccc4c23)cc1O`, the GI50 with A549 NSCLC is 2.26 µM; in the assay with KM12 colon, 1.59 µM; with MOLT-4 leukemia it was 2.16 µM; with NCI-H460 lung it was 2.17 µM; with OVCAR-5 ovarian it was 14 µM; with OVCAR-8 ovarian, 1.9 µM. The figures for the GI50 in the assay with SK-OV-3 ovarian, in the assay with SW-620 colon and in the assay on UACC-257 melanoma were 10.7 µM, 1.66 µM and 25.5 µM, respectively. The TGI came to 5.95 µM in the assay on A549 NSCLC; 4.19 µM in the assay with KM12 colon; 5.38 µM in the assay on MOLT-4 leukemia; 5.54 µM in the assay with NCI-H460 lung; 26.9 µM in the assay on OVCAR-5 ovarian; 3.85 µM with OVCAR-8 ovarian. Also, the TGI amounted to 22.6 µM in the assay on SK-OV-3 ovarian, 3.44 µM in the assay with SW-620 colon and 40.2 µM with UACC-257 melanoma.
